Source: the supplement of paper PMC10331698
± gives the standard deviation of the averaged measurements.

Key:
Assay in all cases: level (log10 ratio to DMSO vehicle control); higher = higher biomarker level / cell amount than vehicle control
[1] = compound: CCOC(=O)CC(=O)C(F)(F)C(F)(F)F [Ethyl pentafluoropropionyl acetate] (in DMSO)
Description: (§1)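 BioMAP Diversity Plus panel of 12 human primary cell co-culture systems (3C, 4H, LPS, SAg, BT, BF4T, BE3C, CASM3C, HDF3CGF, KF3CT, MyoF, Mphg). Compounds were added 1 h before stimulation and left for 24 h (MyoF 48 h; BT 72 h for soluble read-outs or 6 d for IgG). Biomarkers were read by ELISA, cytotoxicity by SRB, PBMC viability and proliferation by Alamar Blue. Each well value was divided by the mean of 8 DMSO control wells on the same plate and log10 transformed; duplicate blinded samples were tested at 4 concentrations.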

[2] = compound: C[C@@H]1C[C@H]2[C@@H]3CCC4=CC(=O)C=C[C@]4(C)[C@@]3(F)[C@@H](O)C[C@]2(C)[C@@]1(O)C(=O)COP(=O)(O)O [Dexamethasone sodium phosphate] (in DMSO)
Description: as §1

Octafluoroadipic acid = compound: O=C(O)C(F)(F)C(F)(F)C(F)(F)C(F)(F)C(=O)O [Octafluoroadipic acid] (in DMSO)
Description: as §1

[3] = compound: O=S(=O)(O)C(F)(F)C(F)(F)OC(F)(F)C(F)(F)F [Perfluoro(2-ethoxyethane)sulfonic acid] (in DMSO)
Description: as §1

[4] = compound: OCC(F)(F)C(F)(F)C(F)(F)C(F)(F)C(F)(F)C(F)(F)CO [1H,1H,8H,8H-Perfluorooctane-1,8-diol] (in DMSO)
Description: as §1

[5] = compound: OCCC(F)(F)C(F)(F)C(F)(F)C(F)(F)F [4:2 Fluorotelomer alcohol] (in DMSO)
Description: as §1

Test System	level (log10) ([1]; 6700 nM)	level (log10) ([1]; 20000 nM)	level (log10) ([1]; 60000 nM)	level (log10) ([2]; 1500 nM)	level (log10) ([2]; 4400 nM)	level (log10) ([2]; 13000 nM)	level (log10) ([2]; 40000 nM)	level (log10) (Octafluoroadipic acid; 6700 nM)	level (log10) (Octafluoroadipic acid; 20000 nM)	level (log10) (Octafluoroadipic acid; 60000 nM)	level (log10) ([3]; 6700 nM)	level (log10) ([3]; 20000 nM)	level (log10) ([3]; 60000 nM)	level (log10) ([4]; 6700 nM)	level (log10) ([4]; 20000 nM)	level (log10) ([4]; 60000 nM)	level (log10) ([5]; 6700 nM)	level (log10) ([5]; 20000 nM)	level (log10) ([5]; 60000 nM)
CASM3C:M-CSF	-0.0145 ± 0.00071	-0.0175 ± 0.0064	-0.0025 ± 0.028	0.157 ± 0.031	0.155 ± 0.023	0.141 ± 0.0085	0.151 ± 0.0092	-0.039 ± 0.02	-0.024 ± 0.042	0.0155 ± 0.1	-0.0075 ± 0.011	0 ± 0.031	0.0615 ± 0.057	-0.0185 ± 0.035	-0.0215 ± 0.0078	-0.012 ± 0.035	-0.085 ± 0.027	-0.048 ± 0.0028	0.0105 ± 0.0035
lMphg:SRB-Mphg	-0.0015 ± 0.018	-0.0055 ± 0.005	-0.012 ± 0.02	-0.0225 ± 0.022	-0.0625 ± 0.005	-0.0715 ± 0.018	-0.0805 ± 0.057	-0.026 ± 0.016	0.0135 ± 0.022	0.0265 ± 0.029	0.0125 ± 0.005	0.0155 ± 0.015	-0.0045 ± 0.025	-0.053 ± 0.079	-0.031 ± 0.014	-0.018 ± 0.027	-0.007 ± 0.03	-0.004 ± 0.018	0.016 ± 0.017
MyoF:CD106/VCAM-1	-0.0125 ± 0.012	-0.012 ± 0.023	-0.0105 ± 0.021	-0.0825 ± 0.03	-0.046 ± 0.0057	-0.058 ± 0.013	-0.0655 ± 0.016	-0.0235 ± 0.005	-0.0255 ± 0.022	-0.0085 ± 0.016	0.006 ± 0.013	-0.0095 ± 0.015	0.013 ± 0.013	-0.0045 ± 0.0035	0.0105 ± 0.0021	0.0295 ± 0.011	-0.0275 ± 0.0078	-0.024 ± 0.0042	-0.0225 ± 0.064
BE3C:tPA	-0.019 ± 0.041	-0.034 ± 0.038	-0.028 ± 0.035	-0.149 ± 0.029	-0.175 ± 0.013	-0.219 ± 0.062	-0.197 ± 0.0035	-0.003 ± 0.0028	0.004 ± 0.0099	0.0015 ± 0.0064	-0.004 ± 0.034	-0.053 ± 0.013	0.0595 ± 0.013	0.0105 ± 0.016	0.01 ± 0.011	0.03 ± 0.0057	-0.0115 ± 0.0035	-0.015	0.013 ± 0.016
lMphg:CCL3/MIP-1alpha	-0.0265 ± 0.026	-0.0305 ± 0.0078	0.0075 ± 0.022	-0.139 ± 0.016	-0.173 ± 0.043	-0.254 ± 0.06	-0.209 ± 0.055	-0.035 ± 0.024	-0.0045 ± 0.023	0.002 ± 0.018	0.0145 ± 0.025	0.0015 ± 0.0064	0.0065 ± 0.021	-0.023 ± 0.0014	-0.016 ± 0.0085	0.018 ± 0.025	-0.009 ± 0.0042	-0.011 ± 0.014	0.0005 ± 0.019
lMphg:CD40	-0.0205 ± 0.0092	-0.0135 ± 0.0092	0.003 ± 0.061	-0.0185 ± 0.026	-0.0375 ± 0.0092	-0.038 ± 0.013	-0.103 ± 0.04	-0.0065 ± 0.0021	-0.0015 ± 0.0021	-0.025 ± 0.048	-0.018 ± 0.02	-0.013 ± 0.037	-0.0215 ± 0.025	-0.0015 ± 0.018	-0.028 ± 0.013	-0.0405 ± 0.0078	0.0015 ± 0.013	0.016 ± 0.0085	0.0025 ± 0.015
BE3C:SRB	-0.002 ± 0.0042	-0.0015 ± 0.0035	0.002 ± 0.0071	0.0135 ± 0.013	0.003 ± 0.0014	0.002 ± 0.0014	0.0115 ± 0.0064	0.0035 ± 0.005	0.0005 ± 0.0035	-0.0035 ± 0.0092	-0.001 ± 0.0042	0 ± 0.0014	0.0055 ± 0.018	-0.003 ± 0.0028	-0.0025 ± 0.0021	-0.0015 ± 0.0035	-0.004	-0.001 ± 0.0014	-0.0005 ± 0.005
